Assay results: patent US8722849B2, “Polypeptides” (Novo Nordisk A/S, priority 2011, dated 2014)
Like-named read-outs stand apart in the source and are kept apart here. Starred links: 1 amine or outer side, 2 acyl side, 3 side chain; linkers in the order of their positions; H or OH if unused. Positions of bridges follow the written chain, without caps; N, C: chain ends. Residues, ends and D or L forms follow the SMILES beside them. *: point of attachment. C20 diacid = O=C(O)CCCCCCCCCCCCCCCCCCC(=O)*; γGlu = O=C(O)[C@H](CCC(=O)[*:2])N[*:1]; AEEA = NCCOCCOCC(=O)O

Assay: Assay (IV) determination of solubility
Assay type: physicochemical
Procedure: ASSAY (IV)—Determination of Solubility
The polypeptide was dissolved in water at ˜500 nmol/ml and mixed 1:1 with a series of buffers (100 mM glycylglycine pH 3.0, 100 mM glycylglycine pH 4.0, 100 mM glycylglycine pH 5.0, 100 mM bistrispropane pH 6.0, 100 mM bistrispropane pH 6.5, 100 mM bistrispropane pH 7.0, 100 mM bistrispropane pH 7.5, 100 mM bistrispropane pH 8.0). After 18 hours at room temperature the samples were centrifuged and the polypeptide concentration determined by HPLC.

[1] = pH 3, pH 3.0, read-out: Solubility pH 3.0
[2] = pH 4, pH 4.0, 18 hours at room temperature, Table 2, read-out: Solubility pH 4.0
[3] = pH 4, pH 4.0, read-out: Solubility pH 4.0
[4] = pH 5, pH 5.0, read-out: Solubility pH 5.0
[5] = pH 6, pH 6.0, read-out: Solubility pH 6.0
[6] = pH 6.5, pH 6.5, read-out: Solubility pH 6.5
[7] = pH 7, pH 7.0, 18 hours at room temperature, Table 3, read-out: Solubility pH 7.0
[8] = pH 7, pH 7.0, read-out: Solubility pH 7.0
[9] = pH 7.5, pH 7.5, read-out: Solubility pH 7.5
[10] = pH 8, pH 8.0, read-out: Solubility pH 8.0

solubility [1]	solubility [2]	solubility [3]	solubility [4]	solubility [5]	solubility [6]	solubility [7]	solubility [8]	solubility [9]	solubility [10]	Structure (SMILES)
> 200 µM	> 200 µM	> 200 µM	> 200 µM	> 200 µM	> 200 µM	> 200 µM	> 200 µM	> 200 µM	> 200 µM	CC[C@H](C)[C@H](NC(=O)[C@@H]1CCCN1C(=O)CNC(=O)[C@H](Cc1ccccc1)NC(=O)[C@H](CC(N)=O)NC(=O)[C@H](C)NC(=O)[C@H](CO)NC(=O)[C@H](CO)NC(=O)[C@H](Cc1c[nH]cn1)NC(=O)[C@@H](NC(=O)[C@H](CC(C)C)NC(=O)[C@H](Cc1ccccc1)NC(=O)[C@H](CCC(=O)O)NC(=O)[C@H](C)NC(=O)[C@H](CC(C)C)NC(=O)[C@H](CCCNC(=N)N)NC(=O)[C@H](CCC(N)=O)NC(=O)[C@@H](NC(=O)[C@H](C)NC(=O)[C@@H]1CSSC[C@H](NC(=O)[C@H](CCCCN)NC(=O)COCCOCCNC(=O)COCCOCCNC(=O)CC[C@H](NC(=O)CCCCCCCCCCCCCCCCCCC(=O)O)C(=O)O)C(=O)N[C@@H](CC(N)=O)C(=O)N[C@@H]([C@@H](C)O)C(=O)N[C@@H](C)C(=O)N[C@@H]([C@@H](C)O)C(=O)N1)[C@@H](C)O)C(C)C)C(=O)N[C@@H](CC(C)C)C(=O)N1CCC[C@H]1C(=O)N1CCC[C@H]1C(=O)N[C@H](C(=O)N[C@@H](CC(N)=O)C(=O)N[C@H](C(=O)NCC(=O)N[C@@H](CO)C(=O)N[C@@H](Cc1c[nH]cn1)C(=O)N[C@H](C(=O)N1CCC[C@H]1C(N)=O)[C@@H](C)O)C(C)C)[C@@H](C)O [Example 178, N-alpha-[2-(2-{2-[2-(2-{2-[(S)-4-Carboxy-4-(19-carboxyheptadecanoylamino)butyrylamino]ethoxy}ethoxy)acetylamino]ethoxy}ethoxy)acetyl]-[Glu14,Ala21,His35,Pro37]-pramlintide] ({C20 diacid-γGlu-AEEA-AEEA}-KCNTATCATQRLAEFLVHSSANFGPILPPTNVGSHTP-NH2; disulfide 2-7)
> 200 µM	> 200 µM	> 200 µM	> 200 µM	> 200 µM	> 200 µM	> 200 µM	> 200 µM	> 200 µM	> 200 µM	CC(C)C[C@H](NC(=O)[C@H](CCCNC(=N)N)NC(=O)[C@H](CCC(N)=O)NC(=O)[C@@H](NC(=O)[C@H](C)NC(=O)[C@@H]1CSSC[C@H](NC(=O)[C@H](CCCCN)NC(=O)CC[C@H](NC(=O)CCCCCCCCCCCCCCCCCCC(=O)O)C(=O)O)C(=O)N[C@@H](CC(N)=O)C(=O)N[C@@H]([C@@H](C)O)C(=O)N[C@@H](C)C(=O)N[C@@H]([C@@H](C)O)C(=O)N1)[C@@H](C)O)C(=O)N[C@@H](C)C(=O)N[C@@H](CCC(=O)O)C(=O)N[C@@H](Cc1ccccc1)C(=O)N[C@@H](CC(C)C)C(=O)N[C@H](C(=O)N[C@@H](Cc1c[nH]cn1)C(=O)N[C@@H](CO)C(=O)N[C@@H](CO)C(=O)N[C@@H](CO)C(=O)N[C@@H](CO)C(=O)N1CCC[C@H]1C(=O)NCC(=O)N[C@@H](C)C(=O)N1CCC[C@H]1C(=O)N[C@@H](CC(C)C)C(=O)N[C@@H](CO)C(=O)N[C@@H](CO)C(=O)N[C@H](C(=O)N[C@@H](CC(=O)O)C(=O)N[C@H](C(=O)NCC(=O)N[C@@H](CO)C(=O)N[C@@H](CC(=O)O)C(=O)N[C@H](C(=O)N1CCC[C@H]1C(N)=O)[C@@H](C)O)C(C)C)[C@@H](C)O)C(C)C [Example 171, N-alpha-[(S)-4-Carboxy-4-(19-carboxynonadecanoylamino)butyryl]-[Glu14,Ser21,Ser22,Pro23,Ala25,Pro26,Ser28,Ser29,Asp31,Asp35,Pro37]-pramlintide] ({C20 diacid-γGlu}-KCNTATCATQRLAEFLVHSSSSPGAPLSSTDVGSDTP-NH2; disulfide 2-7)
